Results on one sequence are retold here after patent publication EP0783524B1, “PEPTIDES AND PHARMACEUTICAL COMPOSITIONS COMPRISING THEM” (YEDA RESEARCH AND DEVELOPMENT CO. LTD., priority 1994, dated 2005).

The subject of one test is NOD mice. To be noted: results of refs (3) and (4); cited from earlier work.
For another test, the system named is anti-idiotypic T cells. Nature of the test: Immunization followed by spleen T cell proliferation assay (anti-idiotypic response), NOD mice. In kind it is in vivo. Conditions: NOD female mice, 12 weeks old, 100 µg per mouse subcutaneously in IPA; tested 2 or 5 weeks after treatment; C9VDJ peptide 5 µg/ml (Figure 9). From the text:
The peptides are useful for the production of a medicine for vaccination against IDDM. • Figure 1. Determination by PCR of TCR, Vβ gene usage in the C9 clone. Lanes 1-19: the 19 different Vβ amplification reactions with the Cβ oligonucleotide primer. Lane s.m.: fx/Hae III size marker. The gel was hybridized with an internal Cβ oligonucleotide probe and therefore the size marker is printed. The two positive bands for Vβ2 and Vβ12 indicate the existence of these segments in the C9 clone. • Figure 2. The presence of sequences homologous to the C9 VDJ rearrangement determined by PCR in different T-cell lines using the specific C9 VDJ oligonucleotide primer. The first four lanes show the results of the NOD lines C9 (lane 1), C7 (2), N4 (3), and an anti-ovalbumin line (4). […] T cell responses to hep60 (idiotype) and to the C9 clone (anti-idiotype) were measured in naive female and male NOD mice. […] The proliferative response was measured'by adding 3H-thymidine to the culture for the last 16 h of a 72 h stimulation. The incorporated 3H-thymidine was measured on a β-counter and the stimulation index (SI) was calculated as cpm incorporation in the presence of antigen/cpm incorporation in the absence of antigen. […]

With “VLGGGCALLRCIPALDSLTPANED (SEQ ID NO:5) [p277]”, the “prevention or reversal of diabetes by vaccination” value in the test with NOD mice was “could prevent (3) or even reverse diabetes”. For the same sequence, the “anti-C9 response (proliferation to C9VDJ peptide) after peptide treatment” value in the test on anti-idiotypic T cells is “induces anti-C9 response”.
